By IC50 is commonly meant the concentration at which inhibition is half-maximal.

The structures appear in SMILES notation.

Here are results for 23 compounds from ChEMBL document CHEMBL2429735, “Preparation of imidazoles as potent calcitonin gene-related peptide (CGRP) antagonists” (Bioorg Med Chem Lett, 2013).

For one series, the system named is Liver. As to the kind of experiment: Metabolic stability in mouse liver microsomes assessed as compound remaining. The format is ADME, Microsome. On the technique in general: Microsomes from liver hold many membrane-bound enzymes, among them those of drug oxidation.
Series [1] concerns Liver microsomes. Kind of series: Metabolic stability in rat liver microsomes assessed as compound remaining. The format is ADME, Microsome.
The subject of series [2] is Liver microsomes. Kind of series: Metabolic stability in human liver microsomes assessed as compound remaining. The format is ADME, Microsome.
The target of series [3] is Calcitonin gene-related peptide type 1 receptor (Homo sapiens, UniProt O60894+Q16602). Kind of series: Antagonist activity at human CGRP receptor expressed in human SK-N-MC cells assessed as inhibition of CGRP-stimulated cAMP production. The format is functional, cell-based. For orientation: Cyclic AMP is a second messenger, typically raised through Gs and lowered through Gi signalling.
Chain of Calcitonin gene-related peptide type 1 receptor (Q16602 whole entry, one chain of several): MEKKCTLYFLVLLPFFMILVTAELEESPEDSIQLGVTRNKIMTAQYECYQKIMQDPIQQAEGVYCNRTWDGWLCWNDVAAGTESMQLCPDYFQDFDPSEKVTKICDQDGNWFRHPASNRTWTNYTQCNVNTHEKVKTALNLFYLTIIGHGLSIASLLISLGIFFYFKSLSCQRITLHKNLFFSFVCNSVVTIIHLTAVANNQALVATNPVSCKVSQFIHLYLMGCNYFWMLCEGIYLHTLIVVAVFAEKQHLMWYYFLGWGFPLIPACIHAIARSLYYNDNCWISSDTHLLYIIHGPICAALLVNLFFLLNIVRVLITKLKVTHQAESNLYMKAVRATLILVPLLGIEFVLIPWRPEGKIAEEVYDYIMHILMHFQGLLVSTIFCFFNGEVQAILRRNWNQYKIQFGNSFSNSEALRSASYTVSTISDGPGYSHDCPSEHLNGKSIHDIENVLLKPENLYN

Series [4] is described as follows: Permeability of the compound by PAMPA method at pH 7.4. The format is ADME. Conditions: read-out: permeability.

As for `Cc1cc(CC(NC(=O)N2CCC(N3Cc4ccccc4NC3=O)CC2)c2nccn2Cc2ccccn2)cc2cn[nH]c12` (racemic), the Stability in the series on Liver worked out at 0%; in the series on Liver microsomes [1], 1%; in the series on Liver microsomes [2] it was 1%. In series [3], the 50% inhibitory concentration (IC50) worked out at 1600 pM.

As to `Cc1cc(CC(NC(=O)N2CCC(N3Cc4ccccc4NC3=O)CC2)c2ncc(C)n2Cc2cccc(F)c2)cc2cn[nH]c12` (racemic), the values for the Stability in the series with Liver, in the series on Liver microsomes [1] and in the series on Liver microsomes [2] were 85%, 87% and 100%, respectively. In addition, the IC50 in series [3] was 370 pM.

As to `Cc1cc(CC(NC(=O)N2CCC(N3Cc4ccccc4NC3=O)CC2)c2ncc(Br)[nH]2)cc2cn[nH]c12` (racemic), the IC50 in series [3] was determined as 7400 pM.

With `Cc1cc(CC(NC(=O)N2CCC(N3Cc4ccccc4NC3=O)CC2)c2nccn2Cc2cccc(F)c2)cc2cn[nH]c12` (racemic), the IC50 in series [3] is 630 pM.

`Cc1cc(CC(NC(=O)N2CCC(N3Cc4ccccc4NC3=O)CC2)c2nccn2Cc2ccccc2)cc2cn[nH]c12` (racemic): the IC50 in series [3] was determined as 770 pM.

Consider `Cc1cc(CC(OC(=O)N2CCC(c3cc4ccccc4[nH]c3=O)CC2)c2ncc3n2CCNC3)cc2cn[nH]c12` (racemic), for which the IC50 in series [3] was determined as 2900 pM.

For the compound `Cc1cc(CC(NC(=O)N2CCC(N3Cc4ccccc4NC3=O)CC2)c2nccn2Cc2cccnc2)cc2cn[nH]c12` (racemic), the Stability came to 2% in the series with Liver, 20% in the series on Liver microsomes [1] and 4% in the series with Liver microsomes [2]. Moreover, the IC50 in series [3] amounted to 420 pM.

`Cc1cc(CC(NC(=O)N2CCC(N3Cc4ccccc4NC3=O)CC2)c2nc(Br)c(Br)[nH]2)cc2cn[nH]c12` (racemic): in series [3], the IC50 is 4800 pM.

Turning to `Cc1cc(Cn2ccnc2C(Cc2cc(C)c3[nH]ncc3c2)NC(=O)N2CCC(N3Cc4ccccc4NC3=O)CC2)cc(Cl)n1` (racemic), the Papp in series [4] is 3.8 ×10⁻⁶ cm/s. For the same compound, the figures for the Stability with Liver, with Liver microsomes [1] and with Liver microsomes [2] were 0%, 2% and 2%, respectively. Moreover, the IC50 in series [3] turned out to be 78 pM.

Take `Cc1cc(CC(NC(=O)N2CCC(N3Cc4ccccc4NC3=O)CC2)c2nccn2Cc2ccc(C(C)(C)C)cc2)cc2cn[nH]c12` (racemic): the IC50 in series [3] was 190 pM.

For `Cc1cc(CC(NC(=O)N2CCC(N3Cc4ccccc4NC3=O)CC2)c2nc(Br)cn2Cc2cc(F)cc(F)c2)cc2cn[nH]c12` (racemic), the results for the Stability with Liver, in the series with Liver microsomes [1] and in the series on Liver microsomes [2] were 93%, 100% and 100%, respectively. For the same compound, the IC50 in series [3] was found to be 390 pM.

Turning to `Cc1cc(CC(NC(=O)N2CCC(N3Cc4ccccc4NC3=O)CC2)c2nccn2C)cc2cn[nH]c12` (racemic), the 50% inhibitory concentration (IC50) in series [3] was found to be 4800 pM.

With `Cc1cc(CC(NC(=O)N2CCC(N3Cc4ccccc4NC3=O)CC2)c2nccn2CCc2ccccc2)cc2cn[nH]c12` (racemic), the IC50 in series [3] was 880 pM.

For `Cc1cc(CC(NC(=O)N2CCC(N3Cc4ccccc4NC3=O)CC2)c2nccn2Cc2cc(F)cc(F)c2)cc2cn[nH]c12` (racemic), the values for the Stability with Liver, in the series on Liver microsomes [1] and with Liver microsomes [2] were 66%, 78% and 84%, respectively. Further, the IC50 in series [3] came to 390 pM.

As to `Cc1cc(CC(OC(=O)N2CCC(c3cc4ccccc4[nH]c3=O)CC2)c2ncc3n2CCN(Cc2ccccc2)C3)cc2cn[nH]c12` (racemic), the Stability with Liver stood at 9%; in the series with Liver microsomes [1] it was 32%; in the series on Liver microsomes [2], 41%.

Turning to `Cc1c[nH]c(C(Cc2cc(C)c3[nH]ncc3c2)NC(=O)N2CCC(N3Cc4ccccc4NC3=O)CC2)n1` (racemic), in series [3], the IC50 was found to be 120000 pM.

As for `Cc1cc(CC(NC(=O)N2CCC(N3Cc4ccccc4NC3=O)CC2)c2nccn2Cc2ccccc2F)cc2cn[nH]c12` (racemic), the IC50 in series [3] is 1900 pM.

Regarding `Cc1cc(CC(NC(=O)N2CCC(N3Cc4ccccc4NC3=O)CC2)c2nccn2Cc2ccncc2)cc2cn[nH]c12` (racemic), the IC50 in series [3] amounted to 830 pM.

For the compound `Cc1cc(C[C@@H](NC(=O)N2CCC(N3Cc4cccc(F)c4NC3=O)CC2)C(=O)N2CCC(N3CCCCC3)CC2)cc2cn[nH]c12`, in series [4], the Papp amounted to 1.1 ×10⁻⁶ cm/s. For the same compound, the IC50 in series [3] worked out at 26 pM.

`Cc1cc(CC(OC(=O)N2CCC(c3cc4ccccc4[nH]c3=O)CC2)c2ncc3n2CCN(C2CCCCC2)C3)cc2cn[nH]c12` (racemic): the results for the Stability with Liver, with Liver microsomes [1] and in the series on Liver microsomes [2] were 21%, 30% and 41%, respectively.

As to `Cc1cc(Cn2ccnc2C(Cc2cc(C)c3[nH]ncc3c2)NC(=O)N2CCC(N3Cc4ccccc4NC3=O)CC2)ccn1` (racemic), the Stability came out at 1% in the series with Liver, 2% in the series on Liver microsomes [1] and 1% in the series with Liver microsomes [2]. Further, the half-inhibitory concentration (IC50) in series [3] is 130 pM.

In the case of `Cc1cc(CC(NC(=O)N2CCC(N3Cc4ccccc4NC3=O)CC2)c2nccn2Cc2ccc(F)cc2)cc2cn[nH]c12` (racemic), the IC50 in series [3] came to 980 pM.

On to `Cc1cc(CC(NC(=O)N2CCC(N3Cc4ccccc4NC3=O)CC2)c2ncc[nH]2)cc2cn[nH]c12` (racemic), for which the IC50 in series [3] was 97000 pM.
